Molecules are shown by their SMILES. Counter-ions that a name gives are not always drawn. Where a SMILES comes first, the peptide text is derived from it. [ ]: non-standard residue; d: D form. The star is where a group is joined. Sta = CC(C)C[C@H](N)[C@@H](O)CC(=O)O; Isovaleryl = CC(C)CC(=O)*

In the first assay the target is T1, Candida albicans acid protease (Candida albicans, UniProt P0DJ06).
T1 construct: endogenous in cells; host or cells: Candida albicans ATCC10231 (proteinase secreted into the culture medium, purified in house)
T1 sequence (P0DJ06 57-398): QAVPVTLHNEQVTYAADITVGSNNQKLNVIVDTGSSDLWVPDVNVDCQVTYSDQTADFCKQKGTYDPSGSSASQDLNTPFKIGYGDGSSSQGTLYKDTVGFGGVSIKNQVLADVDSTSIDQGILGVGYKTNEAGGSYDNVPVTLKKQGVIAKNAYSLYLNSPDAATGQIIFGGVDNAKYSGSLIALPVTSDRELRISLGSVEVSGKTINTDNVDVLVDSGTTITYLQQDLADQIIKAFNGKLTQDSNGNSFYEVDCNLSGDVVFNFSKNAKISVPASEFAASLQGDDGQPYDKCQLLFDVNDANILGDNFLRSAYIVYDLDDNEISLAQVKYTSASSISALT
The assay is described as follows: In vitro inhibitor assay, microtiter assay with fluorogenic substrate A78331.
Conditions: not given
The assay is classed as biochemical, Candida albicans ATCC10231. The protocol: Isolation and Purification of Candida albican Acid Protease Organism and growth conditions. Candida albicans ATCC10231 was grown overnight in Sabouraud broth (Difco) at 30° C. Cells were centrifuged at 10,000xg for 10 min (4° C.) and the cell pellet washed once with 10 mM phosphate buffered saline (PBS), pH7.0. Washed cells (6×10^6 colony forming units per mL) were grown in yeast nitrogen base without ammonium sulfate or amino acids (Difco), plus 2% glucose and 0.1% casein (nitrogen source) at 37° C.
Proteinase isolation. […] Cells were then harvested at 10,000xg for 20 min (4° C.) and the supernatant filtered through a 0.2μ acetate filter unit (Nalgen). The filtrate was concentrated on an Amicon concentrator (PM30 or YM10 membrane, 75 mm) and 30 mL of the concentrate was loaded onto a Cibacron blue F3GA-6% agarose (Pierce Chem.) column (1.5x44cm) equilibrated with 10 mM sodium citrate, pH 6.5, containing lmM EDTA and 0.02% sodium azide (Ray, T. L., and Payne, C. D. Infection and Immunity 58:508-514, 1990). Bovine serum albumin (BSA) was used as substrate to monitor the column for proteinase activity and to determine total proteolytic units. One BSA proteolytic unit was defined as an optical density (750 nm wavelength) increase of 0.100 under incubation conditions of 37° C. for 60 min (Remold, H., Fasold, H., and Staib, F. Biochimica et Biophysica Acta I67:399-406, 1968). […] Proteinase purity and molecular weight was determined by the Phast-gel (12.5% acrylamide) electrophoresis system (Pharmacia). Protein was determined by the Lowry method (Lowry, O. H., Rosenbrough, N. J., Farr, A. L., and Randall, R. J. Journal of Biological Chemistry 193:263-275, 1951). A fluorogenic substrate, A78331, may also be used to monitor proteinase production and purification. This substrate, DABCYL-Gaba-[…]EDANS (Holzman, T. F., Chung, C. C., Edalji, R., Egan, D. A., Gubbins, E. J., Rueter, A., Howard, G., Yang, L. K., Pederson, T. M., Krafft, G. A., and Wang, G. T. Journal of Protein Chemistry 9:663-672, 1990) contains the fluorescent EDANS group, [5-(2-aminoethyl)-amino]naphthalene-1-sulfonic acid, which is quenched by the DABCYL group, 4-(4-dimethyl-aminophenylazo)benzoic acid, as long as it is part of the molecule (Matayoshi, E. D., Wang, G. T., Krafft, G. A., and Erickson, J. Science 247:954-958, 1990). Proteolysis of this compound by the fungal proteinase releases Thr-EDANS, which when activated at 340 nm fluoresces at 490 nm with the same intensity as equimolar EDANS. Activity is expressed in terms of nmol EDANS released from 32 μM A78331 under incubation conditions of 22° C. for 60 min.
In Vitro Inhibitor Assay Method
Microtiter assay. The assay for inhibitors of C. albicans acid proteinase was done in microtiter trays with the fluorogenic substrate A78331. […] The reaction mixture consisted of 5μL test compound or dimethyl sulfoxide and 45μL of fungal proteinase (0.13 BSA proteolytic units or 0.13 nmol EDANS released) in 50 mM sodium citrate, pH 4.5, which was preincubated at 22° C. for 30 min. The reaction was started with the addition of 50μL fluorogenic substrate in citrate buffer and the incubation was continued at 22° C. for 90 min. The reaction was terminated with 150μL pepstatin (final concentration of 1μM) and 210μL samples were transfered to microfluor plates for fluorescence quantitation in a luminescence spectrophotometer (Perkin-Elmer model LS-50). The excitation wavelength was 340 nm and the emission was monitored at 490 nm (430 nm filter employed). Inhibition was expressed as % change in relative intensity from the dimethyl sulfoxide control group (no inhibitor). IC50's were determined from plots of log dose versus % inhibition from control.
For the molecule `CCCCNC(=O)[C@H](C[C@H](O)[C@H](CC1CCCCC1)NC(=O)[C@H](CCCC)N1CCN(S(=O)(=O)c2ccc(OC)cc2)[C@H](Cc2ccccc2)C1=O)C(C)C` [Example 5, (2S)-2-{(3R)-3-Benzyl-4-N-(4-methoxybenzene-sulfonyl)-2-keto-piperazin-1-yl)-hexanoic acid Amide of (2R,4S,5S)-5-Amino-6-cyclohexyl-4-hydroxy-2-isopropylhexanoyl N-(n-Butyl)amide], the IC50 was 13.3 nM. Still for that read-out and setting: the result for `CCCC[C@@H](C(=O)N[C@@H](CC1CCCCC1)[C@@H](O)[C@@H](O)CC(C)C)N1CCN(S(=O)(=O)c2ccc(NC)cc2)[C@H](Cc2ccccc2)C1=O` [Example 11, (2S)-2-{(3R)-3-Benzyl-4-N-(4-(methylamino)benzene-sulfonyl)-2-keto-piperazin-1-yl}-hexanoic acid Amide of (2S,3R,4S)-2-Amino-1-cyclohexyl-3,4-dihydroxyl-6-methylheptane] reads 85 nM. On the same count and under the same terms, the result for `CCCCNC(=O)[C@H](C[C@H](O)[C@H](CC1CCCCC1)NC(=O)[C@H](CCCC)N1C[C@@H](Cc2ccccc2)N(S(=O)(=O)c2ccc(C)cc2)CC1=O)C(C)C` [Example 3, (2S)-2-{(3R)-3-Benzyl-4-N-(4-methylbenzene-sulfonyl)-6-keto-piperazin-1-yl}-hexanoic acid Amide of (2R,4S,5S)-5-Amino-6-cyclohexyl-4-hydroxy-2-isopropylhexanoyl N-(n-Butyl)amide] reads 30.1 nM; that for `CCCCNC(=O)[C@H](C[C@H](O)[C@H](CC1CCCCC1)NC(=O)[C@H](CCCC)N1CCN(C(=O)N2CCC(OCOC)CC2)[C@@H](Cc2ccccc2)C1=O)C(C)C` [Example 14, 2S-(3S-Benzyl-4-N-(4-methoxymethoxypiperidinyl-carbonyl)-2-keto-piperazin-1-yl)-hexanoic acid Amide of (2R,4,5S) -5-Amino-6-cyclohexyl-4-hydroxy-2-isopropylhexanoyl N-(n-Butyl)amide], 4.5 nM.

Turning to `CCCCNC(=O)[C@H](C[C@H](O)[C@H](CC1CCCCC1)NC(=O)[C@H](CCCC)N1CCN(C(=O)N2CCN(C)CC2)[C@H](Cc2ccccc2)C1=O)C(C)C` [Example 1, (2S)-2-((3R)-3-Benzyl-4-N-(4-methylpiperazin-1-yl-carbonyl)-2-keto-piperazin-1-yl}-hexanoic acid Amide of (2R,4S,5S)-5-amino-6-cyclohexyl-4-hydroxy-2-isopropylhexanoyl N-(n-Butyl)amide Hydrochloride], 1.3 nM corresponded to half-maximal inhibition (IC50). On the same count and under the same terms, the result for `CCCCNC(=O)[C@H](C[C@H](O)[C@H](CC1CCCCC1)NC(=O)[C@H](CCCC)N1CCN(S(=O)(=O)N2CCN(C)CC2)[C@@H](Cc2ccccc2)C1=O)C(C)C` [Example 13] reads 2.7 nM. Take `CCCC[C@@H](C(=O)N[C@@H](CC1CCCCC1)[C@@H](O)C[C@@H](C(=O)NCCCN1CCOCC1)C(C)C)N1CCN(C(=O)N2CCN(C)CC2)[C@@H](Cc2ccccc2)C1=O` [Example 12, (2S)-2-{(3S)-3-Benzyl-4-N-(4-methylpiperazin-1-yl-carbonyl)-2-keto-piperazin-1-yl}-hexanoic acid Amide of (2R,4S,5S)-5-Amino-6-cyclohexyl-4-hydroxy-2-isopropylhexanoyl N-3-(N-Morpholinyl)propyllamide]: half-maximal inhibition (IC50) required 3.8 nM. The same measure, in the same setting: the result for `CCCC[C@@H](C(=O)N[C@@H](CC1CCCCC1)[C@@H](O)C[C@@H](C(=O)NCCN(C)C)C(C)C)N1CCN(C(=O)N2CCN(C)CC2)[C@H](Cc2ccccc2)C1=O` [Example 17] reads 6.2 nM; that for `CCCC[C@@H](C(=O)N[C@@H](CC1CCCCC1)[C@@H](O)C[C@@H](C(=O)NCCCN(C)C)C(C)C)N1CCN(C(=O)N2CCN(C)CC2)[C@H](Cc2ccccc2)C1=O` [Example 18, (2S)-2{(3R)-3-Benzyl-4-N-(4-methylpiperazin-1-yl-carbonyl)-2-keto-piperazin-1-yl}-hexanoic acid Amide of (2R,4S,5S)-5-Amino-6-cyclohexyl-4-hydroxy-2-isopropylhexanoyl N-[3-(Dimethylamino)propyl]amide], 3.8 nM. Same read-out and setting: for `CCCC[C@@H](C(=O)N[C@@H](CC1CCCCC1)[C@@H](O)C[C@@H](C(=O)NCCCN1CCOCC1)C(C)C)N1CCN(C(=O)N2CCC(OCOC)CC2)[C@@H](Cc2ccccc2)C1=O` [Example 16, (2S)-2-{(3S)-3-Benzyl-4-N-(4-methoxymethoxypiperidin-1-yl-carbonyl)-2-keto-piperazin-1-yl}-hexanoic acid Amide of (2R, 4S, 5S)-5-Amino-6-cyclohexyl-4-hydroxy-2-isopropylhexanoyl N-[3-(N-Morpholinyl)propyl]amide] the value was 5 nM; for `CCCC[C@@H](C(=O)N[C@@H](CC1CCCCC1)[C@@H](O)C[C@@H](C(=O)NCCCN1CCOCC1)C(C)C)N1CCN(S(=O)(=O)N2CCN(C)CC2)[C@@H](Cc2ccccc2)C1=O` [Example 15, (2S)-2-{(3S)-3-Benzyl-4-N-(4-methylpiperazin-1-yl-sulfonyl)-2-keto-piperazine-1-yl}-hexanoic acid Amide of (2R,4S,5S)-5-Amino-6-cyclohexyl-4hydroxy-2-isopropylhexanoyl N-[3-(N-Morpholinyl)propyl]amide], 3.8 nM.

The next assay has as its system Candida acid protease.
Test: not given
The note with it: background art; cited from earlier work.
As for `CC(C)CC(=O)N[C@H](C(=O)N[C@H](C(=O)N[C@@H](CC(C)C)[C@@H](O)CC(=O)N[C@@H](C)C(=O)N[C@@H](CC(C)C)[C@@H](O)CC(=O)O)C(C)C)C(C)C` [Pepstatin A] (Isovaleryl-VV[Sta]A[Sta]-OH), the “potency as inhibitor of Candida acid protease (in words)” value was “not very potent inhibitors of the enzyme” and the “specificity (in words)” value is reported as “non-specific”. As for `CC(C)C[C@H](NC(=O)[C@@H](NC(=O)N[C@@H](Cc1ccccc1)C(=O)O)[C@@H]1CCN=C(N)N1)C(=O)N[C@H](C=O)Cc1ccccc1` [chymostatin], the “potency as inhibitor of Candida acid protease (in words)” value is “not very potent inhibitors of the enzyme” and the “specificity (in words)” value is “non-specific”.

Source of the values: patent US5120718A, “Candida acid protease inhibiting compounds” (priority 1991, dated 1992).
